Measured values from patent US8828682B2, “Methods and articles for detecting hemolytic microorganisms” (priority 2008, dated 2014).
Where two headings read alike, the source gives them in different places.

How the values were obtained:
[1] = test system: methicillin-resistant S. aureus (strain 565, clinical isolate); type: cell-based, Staphylococcus aureus; settings: 35° C., 10% sheep blood in PBS
Protocol: (§1) Antibiotic stock solutions (3 mg/mL and 4 mg/mL) were individually prepared in DI water. The solutions were filter-sterilized. The antibiotics included cefoxitin, cefazolin, and cefuroxime. The antibiotics were diluted 1:1000 into PBS/sheep blood aliquots to achieve final antibiotic concentrations of 3 μg/mL and 4 μg/mL, respectively.
(§2) The bacterial suspensions were subjected to two serial 1:100 dilutions in sterile PBS. The diluted suspensions were then further subjected to a 1:100 dilution into each of the respective PBS/sheep blood mixtures containing an antibiotic. One milliliter of each final suspension; containing sheep blood, microorganisms, and an antibiotic in PBS; was into a PAC plate as described above. The plates were incubated at 35° C. for 48 hours. Each plate was checked for colony growth and hemolytic zone after 24 and 48 hours of incubation.

[2] = test system: methicillin-resistant S. epidermidis (strain 497, clinical isolate); assay: Growth and hemolysis in PAC thin film culture plates with antibiotic in PBS/10% sheep blood diluent; type: cell-based, Staphylococcus epidermidis; settings: 35° C., 10% sheep blood in PBS
Protocol: as §1, §2

CO/N=C(\C(=O)N[C@@H]1C(=O)N2C(C(=O)O)=C(COC(N)=O)CS[C@H]12)c1ccco1 [Cefu, cefuroxime]
+/+: Growth ([1]; antibiotic 3 μg/mL, 24 hours) | Hemolysis ([1]; antibiotic 3 μg/mL, 24 hours) | Growth ([1]; antibiotic 3 μg/mL, 48 hours) | Hemolysis ([1]; antibiotic 3 μg/mL, 48 hours) | Growth ([1]; antibiotic 4 μg/mL, 24 hours) | Hemolysis ([1]; antibiotic 4 μg/mL, 24 hours) | Growth ([1]; antibiotic 4 μg/mL, 48 hours) | Hemolysis ([1]; antibiotic 4 μg/mL, 48 hours) | Growth ([2]; antibiotic 3 μg/mL, 24 hours) | Growth ([2]; antibiotic 3 μg/mL, 48 hours) | Growth ([2]; antibiotic 4 μg/mL, 24 hours) | Growth ([2]; antibiotic 4 μg/mL, 48 hours)

CO[C@@]1(NC(=O)Cc2cccs2)C(=O)N2C(C(=O)O)=C(COC(N)=O)CS[C@@H]21 [Cefo, cefoxitin]
+/+: Growth ([1]; antibiotic 3 μg/mL, 24 hours) | Hemolysis ([1]; antibiotic 3 μg/mL, 24 hours) | Growth ([1]; antibiotic 3 μg/mL, 48 hours) | Hemolysis ([1]; antibiotic 3 μg/mL, 48 hours) | Growth ([1]; antibiotic 4 μg/mL, 24 hours) | Hemolysis ([1]; antibiotic 4 μg/mL, 24 hours) | Growth ([1]; antibiotic 4 μg/mL, 48 hours) | Hemolysis ([1]; antibiotic 4 μg/mL, 48 hours) | Growth ([2]; antibiotic 3 μg/mL, 24 hours) | Growth ([2]; antibiotic 3 μg/mL, 48 hours) | Growth ([2]; antibiotic 4 μg/mL, 24 hours) | Growth ([2]; antibiotic 4 μg/mL, 48 hours)
